Laboratory results taken from PubChem BioAssay (NCI).
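All cell lines were grown in 96-well plates and treated with compound for 48 hours. TGI denotes the concentration required for complete inhibition of growth.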

Experiments:
Assay in all cases: growth of human tumour cells (NCI), 48 h
786-0 renal = system: 786-0 renal
A498 renal = system: A498 renal
A549 NSCLC = system: A549 NSCLC
ACHN renal = system: ACHN renal
CAKI-1 renal = system: CAKI-1 renal
CCRF-CEM leukemia = system: CCRF-CEM leukemia
COLO 205 colon = system: COLO 205 colon
DLD-1 colon = system: DLD-1 colon
DMS 114 small cell lung = system: DMS 114 small cell lung
DMS 273 small cell lung = system: DMS 273 small cell lung
EKVX NSCLC = system: EKVX NSCLC
HCC-2998 colon = system: HCC-2998 colon
HCT-116 colon = system: HCT-116 colon
HCT-15 colon = system: HCT-15 colon
HL-60(TB) leukemia = system: HL-60(TB) leukemia
HOP-18 NSCLC = system: HOP-18 NSCLC
HOP-62 NSCLC = system: HOP-62 NSCLC
HOP-92 NSCLC = system: HOP-92 NSCLC
HT29 colon = system: HT29 colon
IGROV1 ovarian = system: IGROV1 ovarian
K-562 leukemia = system: K-562 leukemia
KM12 colon = system: KM12 colon
KM20L2 colon = system: KM20L2 colon
LXFL 529 NSCLC = system: LXFL 529 NSCLC
M14 melanoma = system: M14 melanoma
M19-MEL melanoma = system: M19-MEL melanoma
MALME-3M melanoma = system: MALME-3M melanoma
MOLT-4 leukemia = system: MOLT-4 leukemia
NCI-H226 lung = system: NCI-H226 lung
NCI-H23 lung = system: NCI-H23 lung
NCI-H460 lung = system: NCI-H460 lung
NCI-H522 lung = system: NCI-H522 lung
OVCAR-3 ovarian = system: OVCAR-3 ovarian
OVCAR-4 ovarian = system: OVCAR-4 ovarian
OVCAR-5 ovarian = system: OVCAR-5 ovarian
OVCAR-8 ovarian = system: OVCAR-8 ovarian
RPMI-8226 leukemia = system: RPMI-8226 leukemia
SF-268 CNS = system: SF-268 CNS
SF-295 CNS = system: SF-295 CNS
SF-539 CNS = system: SF-539 CNS
SK-MEL-2 melanoma = system: SK-MEL-2 melanoma
SK-MEL-28 melanoma = system: SK-MEL-28 melanoma
SK-MEL-5 melanoma = system: SK-MEL-5 melanoma
SK-OV-3 ovarian = system: SK-OV-3 ovarian
SN12C renal = system: SN12C renal
SNB-19 CNS = system: SNB-19 CNS
SNB-75 CNS = system: SNB-75 CNS
SNB-78 CNS = system: SNB-78 CNS
SR leukemia = system: SR leukemia
SW-620 colon = system: SW-620 colon
TK-10 renal = system: TK-10 renal
U251 CNS = system: U251 CNS
UACC-257 melanoma = system: UACC-257 melanoma
UACC-62 melanoma = system: UACC-62 melanoma
UO-31 renal = system: UO-31 renal
XF 498 CNS = system: XF 498 CNS
LOX IMVI melanoma = system: LOX IMVI melanoma
RXF 393 renal = system: RXF 393 renal

Measured: TGI

COc1ccc(S(=O)(=O)N/N=C(\C)CN2C(=O)c3ccccc3C2=O)cc1OC
not listed: LOX IMVI melanoma | RXF 393 renal
> 100 µM: all other assays above

c1ccc2cc(C3NCCc4[nH]cnc43)ccc2c1 (configuration not stated)
62.5 µM: COLO 205 colon
91.6 µM: CCRF-CEM leukemia
45.3 µM: SK-MEL-5 melanoma
56.2 µM: KM12 colon
82.1 µM: TK-10 renal
70.9 µM: UACC-257 melanoma
88.5 µM: A498 renal
57.9 µM: MOLT-4 leukemia
not listed: EKVX NSCLC | HL-60(TB) leukemia | MALME-3M melanoma | SNB-19 CNS | XF 498 CNS
> 100 µM: all other assays above

COc1cc2ccnc(C#N)c2cc1OCc1ccccc1
66.3 µM: SNB-75 CNS
not listed: COLO 205 colon | DMS 114 small cell lung | DMS 273 small cell lung | HL-60(TB) leukemia | HOP-92 NSCLC | IGROV1 ovarian | M19-MEL melanoma | NCI-H226 lung | SK-OV-3 ovarian | SR leukemia | UACC-62 melanoma | LOX IMVI melanoma | RXF 393 renal
> 100 µM: all other assays above

CN1CCS(=O)(=O)NC(Cc2ccccc2)C(=O)N2CCCC2C1=O (configuration not stated)
not listed: HOP-92 NSCLC | M14 melanoma | NCI-H460 lung | SR leukemia | RXF 393 renal
> 100 µM: all other assays above
